The text below walks through data of patent US4182712A, “5-Substituted thiadiazole ureas” (Mobil Oil Corporation, priority 1977, dated 1980).

In general, pest or weed control refers to how far the test organism was held down. High values mean strong suppression, low ones weak suppression.

The first experiment deals with crops and weed species. Description: Pre- and post-emergence herbicide tests, overall (Tables III-VI). It is filed as in vivo. The conditions noted are these: in words. As to the method:
(§1) All crop and weed species were planted individually in 3" plastic pots containing potting soil. Four seeds each of corn, cotton, and snapbeans were seeded to a depth equal to the diameter of the seed. All other species were surface seeded and sprinkled with screened soil in an amount sufficient to cover the seed. Immediately after planting, all pots were watered by sub-irrigation in greenhouse trays. Pots for the pre-emergence phase were seeded one day before treatment.
(§2) Planting dates for the post-emergence phase were varied so that all seedlings would reach the desired stage of development simultaneously. The proper stage of seedling development for treatment in the post-emergence phase is as follows:
(§3) Compounds were tested at rates of application equivalent to 8 lbs. of actual compound per acre in a spray volume of 38 gallons per acre. Spray hood constants required to deliver the above volume are as follows:
Two weeks after treatment, pre- and post-emergence injury or control was visually rated, and the results were as shown in the following tables. Pre-emergence data are provided in TABLE III and post-emergence data are provided in TABLE IV, for compounds having the formula illustrated in TABLE I. Correspondingly, pre-emergence and post-emergence data, respectively, are set forth in TABLES V AND VI, for compounds having the formula illustrated in TABLE II.
Consider `CNC(=O)Nc1nnc(C(F)(F)F)s1` [Example 1, 1-Methyl-3-[5-Trifluoromethyl-2-(1,3,4-Thiadiazolyl)] Urea], for which the “herbicidal effectiveness on a variety of crops and weed species” value (from here on “herbicidal effectiveness on a variety”) is listed as “extremely effective”.

Turning to `CN(C)C(=O)Nc1nnc(C(F)(F)F)s1` [Example 2, 1,1-Dimethyl-3-[5-Trifluoromethyl-2-(1,3,4-Thiadiazolyl)] Urea], the “herbicidal effectiveness on a variety” value is given as “extremely effective”.

As for `CSc1nnc(N(C)C(=O)N(C)C)s1` [Example 5, 1,1,3-trimethyl-3-[5-methylthio-2-(1,3,4-thiadiazolyl)] urea], the “herbicidal effectiveness on a variety” value is “extremely effective”.

On to `CCNC(=O)Nc1nnc(C(F)(F)F)s1` [Example 9], for which the “selectivity toward a certain crop or weed species” value is given as “more selective when applied to a certain crop or weed species”.

Consider `C=CCNC(=O)Nc1nnc(C(F)(F)F)s1` [Example 12], for which the “selectivity post-emergence versus pre-emergence” value is recorded as “control post-emergence growth, while have little effect in regard to pre-emergence”.

Consider `O=C(Nc1ccc(Cl)cc1)Nc1nnc(C(F)(F)F)s1` [Example 15], for which the “selectivity toward a certain crop or weed species” value is on record as “more selective when applied to a certain crop or weed species”.

For the compound `O=C(Nc1ccc(Cl)c(Cl)c1)Nc1nnc(C(F)(F)F)s1` [Example 16], the “selectivity toward a certain crop or weed species” value is reported as “more selective when applied to a certain crop or weed species”.

As for `Cc1nnc(NC(=O)N(C)C)s1` [Example 19], the “selectivity post-emergence versus pre-emergence” value was “The converse of this relationship”.

For `CCc1nnc(NC(=O)N(C)C)s1` [Example 20], the “selectivity toward a certain crop or weed species” value was “more selective when applied to a certain crop or weed species”.

Turning to `CNC(=O)Nc1nnc(CC(C)C)s1` [Example 21], the “selectivity toward a certain crop or weed species” value is listed as “more selective when applied to a certain crop or weed species”.

Turning to `CNC(=O)Nc1nnc(COC)s1` [Example 25], the “selectivity toward a certain crop or weed species” value is listed as “more selective when applied to a certain crop or weed species”.

Take `CNC(=O)Nc1nnc(SC)s1` [Example 26]: the “herbicidal effectiveness on a variety” value is listed as “extremely effective”.

For `CNC(=O)Nc1nncs1` [Example 35], the “selectivity toward a certain crop or weed species” value is on record as “more selective when applied to a certain crop or weed species”.

On to `CNC(=O)N(C)c1nnc(C(F)(F)F)s1` [Example 36], for which the “herbicidal effectiveness on a variety” value is recorded as “extremely effective”.

On to `CCN(C(=O)NC)c1nnc(C(F)(F)F)s1` [Example 37], for which the “herbicidal effectiveness on a variety” value is “extremely effective”.

The next experiment deals with Amaranth pigweed (PW). Briefly: Post-emergence herbicide test, amaranth pigweed. As to conditions: 336 h, 8 lb/acre, two weeks after treatment. It is filed as in vivo, Amaranthus retroflexus. As to the method: as §1, §2
Pigweed and turnips: 1 or 2 true leaves above visible cotyledons.
as §3
(§4) Formulations for spray applications were prepared in 50 ml volumes with the following three components:
(§5) Formulations for the 4 lbs/acre rate were prepared by adjusting the amount of active ingredient accordingly.
(§6) Spray applications were made in a hood containing a removable belt and fixed spray nozzle. […]
For `O=C(Nc1ccc(Cl)c(Cl)c1)Nc1nnc(C(F)(F)F)s1` [Example 16], the pest or weed control at 8966.8 g/ha was 100%.

The test system of a further experiment is Cotton (CT). Description: Post-emergence herbicide test, cotton. The class given is in vivo, Gossypium hirsutum var. DPL smooth leaf. The conditions noted are these: Gossypium hirsutum, 336 h, 2 lb/acre, two weeks after treatment. As to the method:
Cotton (CT)--Gossypium hirsutum var. DPL smooth leaf
as §1, §2
Cotton: first true leaf 1" in length; expanded cotyledons.
as §3, §4, §5, §6
Compound `CNC(=O)Nc1nnc(SCCCCl)s1` [Example 61] showed a pest or weed control at 2241.7 g/ha of 40%.

The subject of another experiment is Corn (CN). Briefly: Post-emergence herbicide test, corn. It is filed as in vivo. The conditions noted are these: Zea mays, 336 h, 2 lb/acre, two weeks after treatment. As to the method:
as §1, §2, §3, §4, §5
Spray applications were made in a hood containing a removable belt and fixed spray nozzle. For passage through the spray hood, one pot of each specie (pre-emergence phase) was placed on the rear half of the flat. Treatments were removed to the greenhouse after spraying. […]
`CNC(=O)Nc1nnc(SCCCCl)s1` [Example 61] displayed a pest or weed control at 2241.7 g/ha of 100%.
